According to BindingDB's records for doi:10.1021/jm030336u (University of Tennessee At Memphis, 2004):

Molecular target: T1, Androgen receptor (Rattus norvegicus, UniProt P15207)
T1 sequence (P15207 whole entry): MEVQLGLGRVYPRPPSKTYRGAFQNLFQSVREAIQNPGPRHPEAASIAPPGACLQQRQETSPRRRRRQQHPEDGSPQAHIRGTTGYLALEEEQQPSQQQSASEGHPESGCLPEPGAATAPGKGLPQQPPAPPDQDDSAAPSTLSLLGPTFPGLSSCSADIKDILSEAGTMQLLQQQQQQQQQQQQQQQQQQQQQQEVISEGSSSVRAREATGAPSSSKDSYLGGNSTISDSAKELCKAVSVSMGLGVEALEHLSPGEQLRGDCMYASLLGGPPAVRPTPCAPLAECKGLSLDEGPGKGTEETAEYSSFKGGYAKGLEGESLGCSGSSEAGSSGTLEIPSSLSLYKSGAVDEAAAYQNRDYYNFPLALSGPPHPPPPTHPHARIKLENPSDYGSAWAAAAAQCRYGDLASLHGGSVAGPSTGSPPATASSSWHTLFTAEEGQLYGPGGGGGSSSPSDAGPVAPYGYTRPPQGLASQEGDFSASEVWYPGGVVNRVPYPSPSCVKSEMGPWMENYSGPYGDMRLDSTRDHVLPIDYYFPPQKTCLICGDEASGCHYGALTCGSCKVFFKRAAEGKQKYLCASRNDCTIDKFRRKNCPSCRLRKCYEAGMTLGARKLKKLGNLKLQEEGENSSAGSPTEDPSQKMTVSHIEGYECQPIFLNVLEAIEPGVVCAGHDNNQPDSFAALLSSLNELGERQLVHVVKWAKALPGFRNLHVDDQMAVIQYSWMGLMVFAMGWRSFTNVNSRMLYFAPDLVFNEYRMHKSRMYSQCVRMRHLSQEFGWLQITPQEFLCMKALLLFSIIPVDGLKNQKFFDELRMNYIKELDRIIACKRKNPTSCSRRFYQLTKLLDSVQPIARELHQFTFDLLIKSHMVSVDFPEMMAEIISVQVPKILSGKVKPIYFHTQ
Assay: Competitive Radioligand Displacement Assay
Details: pH 7.4; 4 °C

Compound | Ki [nM]
CC(=O)Nc1ccc(SC[C@](C)(O)C(=O)Nc2ccc([N+](=O)[O-])c(C(F)(F)F)c2)cc1 [(2R)-3-[(4-acetamidophenyl)sulfanyl]-2-hydroxy-2-methyl-N-[4-nitro-3-(trifluoromethyl)phenyl]propanamide] | 4.9
C[C@](O)(COc1ccc(I)cc1)C(=O)Nc1ccc([N+](=O)[O-])c(C(F)(F)F)c1 [(2S)-2-hydroxy-3-(4-iodophenoxy)-2-methyl-N-[4-nitro-3-(trifluoromethyl)phenyl]propanamide] | 30
CC(O)(COc1ccc([N-]C#[S+])cc1)C(=O)Nc1ccc([N+](=O)[O-])c(C(F)(F)F)c1 [(2S)-2-hydroxy-3-(4-isothiocyanatophenoxy)-2-methyl-N-[4-nitro-3-(trifluoromethyl)phenyl]propanamide] | 4.62
C[C@](O)(COc1ccc(Br)cc1)C(=O)Nc1ccc([N+](=O)[O-])c(C(F)(F)F)c1 [(2S)-3-(4-bromophenoxy)-2-hydroxy-2-methyl-N-[4-nitro-3-(trifluoromethyl)phenyl]propanamide] | 11.6
